Legend:
Type in all cases: cell-based, human
[1] = tested on: HNSCC tumor tissue; assay: FACS analysis for CD3 and CD8 (CD8+ T cell infiltration) in tumor microenvironment platform; details: vs IgG control
Experimental: The effect of Pembrolizumab and Nivolumab on CD8^+ T cell tumor infiltration was then evaluated. Tumor sections from the same patient cultured for 72 hours in the tumor microenvironment platform were treated with Pembrolizumab, Nivolumab, or IgG as control and stained for H&E, Ki67, Caspase 3, and CD8 at day 3 in culture (T3). Baseline staining was determined at TO. […] To further elucidate the effects of the anti-PD-1 antibodies, FACS analysis was performed on tumor tissue from patient 2941 and patient 2942 treated with either Pembrolizumab, Nivolumab, or IgG control. […] By contrast, there was no effect of either Pembrolizumab or Nivolumab on CD8^+ T cell infiltration for patient 2942, further highlighting the differential response between individuals to PD-1 blockade. CD8^+ T cell infiltration was evaluated in the tumor microenvironment platform with tumor tissue from the same patient, and comparisons for control vs Nivo, control vs Pembro, Nivo vs Pembro, and control vs Nivo vs Pembro for multiple patients are shown in FIG. 6 (each line represents results from the tumor microenvironment platform cultured with tumor tissue from a single individual).

[2] = tested on: HNSCC tumor tissue; assay: M-score clinical outcome predictor: tumor microenvironment platform assays (WST-1, LDH, ATP, glucose uptake, Caspase 3/8, Ki67, H&E) input into machine-trained algorithm; design: scale not given here
[3] = tested on: HNSCC tumor tissue; assay: Granzyme B and Perforin secretion assays, HNSCC tumor sections in tumor microenvironment platform; details: 48 hours
Experimental: FIGS. 9A and 9B show quantification of results for Granzyme B and Perforin secretion assays for HNSCC tumor tissue cultured in the tumor microenvironment platform treated with Pembrolizumab, Nivolumab, or IgG control for 24 or 48 hours.
HNSCC tumor sections from the same patient cultured for 24 or 48 hours in the tumor microenvironment platform with Pembrolizumab, Nivolumab, or IgG as control were assayed for Granzyme B and Perforin secretion. Results are shown in FIG. 9A for the tumor microenvironment platform with tumor tissue from a predicted responder and FIG. 9B for the tumor microenvironment platform with tumor tissue from a predicted non-responder. After treatment with Pembrolizumab for 48 hours, there was an increase in both Granzyme B and Perforin secretion in the tumor microenvironment platform with tissue from the predicted responder compared to treatment with the control IgG. By contrast, at 48 hours in the tumor microenvironment platform with tissue from the predicted non-responder there was no increase in Granzyme B or Perforin secretion for treatment with either Pembrolizumab or Nivolumab.

[4] = tested on: Tumor sections; assay: FACS analysis for CD25, CD127 and FOXP3 expression, tumor sections
Experimental: The effect of treatment with Nivolumab and Pembrolizumab on CD25, CD127, and FOXP3 expression was then evaluated. Tumor sections or PBNCs from the same patient cultured for 3 days in the tumor microenvironment platform were treated with Pembrolizumab, Nivolumab, or IgG control for one day followed by FACS analysis for expression of CD25, CD127, and FOXP3.

[5] = predicted responder, compared to control IgG

M-score ([2]; Patient ID 2916): 8 | M-score ([2]; Patient ID 2926): 28 | M-score ([2]; Patient ID 2939): 4 | M-score ([2]; Patient ID 2942): 18 | M-score ([2]; Patient ID 2950): 13 | M-score ([2]; Patient ID 2963): 9 | M-score ([2]; Patient ID 2979): 27 | M-score ([2]; Patient ID 2980): 19
Substance: Pembrolizumab
CD8^+ T cell infiltration (FACS) ([1]; patient 2941): but not Pembrolizumab | CD8^+ T cell infiltration (FACS) ([1]; patient 2942): no effect | Granzyme B secretion ([3]; predicted non-responder): no increase | Perforin secretion ([3]; predicted non-responder): no increase | Granzyme B secretion [3, 5]: increase | Perforin secretion [3, 5]: increase | CD25^+/FOXP3^− Tumor (% total cells) ([4]; Non-Responder, control 6.52): 5.03 % total cells | CD25^+/CD127^+ Tumor (% total cells) ([4]; Non-Responder, control 19.6): 17.8 % total cells | CD25^−/CD127^− Tumor (% total cells) ([4]; Non-Responder, control 22.1): 24.9 % total cells | CD25^−/FOXP3^− Tumor (% total cells) ([4]; Non-Responder, control 23.6): 10.7 % total cells | CD25^+/CD127^− Tumor (% total cells) ([4]; Non-Responder, control 25.4): 24.3 % total cells | CD25^−/CD127^+ Tumor (% total cells) ([4]; Non-Responder, control 33.0): 32.9 % total cells | CD25^+/FOXP3^+ Tumor (% total cells) ([4]; Non-Responder, control 34.4): 35.8 % total cells | CD25^− FOXP3^+ Tumor (% total cells) ([4]; Non-Responder, control 35.5): 48.4 % total cells | CD25^−/CD127^− Tumor (% total cells) ([4]; Responder, control 12.2): 18.4 % total cells | CD25^− FOXP3^+ Tumor (% total cells) ([4]; Responder, control 18.9): 42.5 % total cells | CD25^−/FOXP3^− Tumor (% total cells) ([4]; Responder, control 20.3): 6.67 % total cells | CD25^+/CD127^− Tumor (% total cells) ([4]; Responder, control 23.0): 17.7 % total cells | CD25^−/CD127^+ Tumor (% total cells) ([4]; Responder, control 24.3): 31.2 % total cells | CD25^+/FOXP3^− Tumor (% total cells) ([4]; Responder, control 25.7): 5.83 % total cells | CD25^+/FOXP3^+ Tumor (% total cells) ([4]; Responder, control 35.1): 45.0 % total cells | CD25^+/CD127^+ Tumor (% total cells) ([4]; Responder, control 40.5): 32.6 % total cells | functional Treg cells (CD25, CD127, FOXP3 FACS) ([4]; platform containing tumor tissue): patient sample-dependent functional Treg cell depression

Reference: patent US20200333324A1, “METHOD OF PREDICTING CLINICAL OUTCOME OF ANTICANCER AGENTS” (MITRA RXDX, INC., priority 2017, published 2020)
